Data taken from ChEMBL document CHEMBL4130452, “Design of Selective Benzoxazepin PI3Kδ Inhibitors Through Control of Dihedral Angles” (ACS Med Chem Lett, 2017).

Assays:
[1] = molecular target: T1, Phosphatidylinositol 4,5-bisphosphate 3-kinase catalytic subunit delta isoform (Homo sapiens, UniProt O00329); test: Binding affinity to PI3Kdelta (unknown origin); settings: read-out: Ki(app)
T1 sequence (O00329 whole entry): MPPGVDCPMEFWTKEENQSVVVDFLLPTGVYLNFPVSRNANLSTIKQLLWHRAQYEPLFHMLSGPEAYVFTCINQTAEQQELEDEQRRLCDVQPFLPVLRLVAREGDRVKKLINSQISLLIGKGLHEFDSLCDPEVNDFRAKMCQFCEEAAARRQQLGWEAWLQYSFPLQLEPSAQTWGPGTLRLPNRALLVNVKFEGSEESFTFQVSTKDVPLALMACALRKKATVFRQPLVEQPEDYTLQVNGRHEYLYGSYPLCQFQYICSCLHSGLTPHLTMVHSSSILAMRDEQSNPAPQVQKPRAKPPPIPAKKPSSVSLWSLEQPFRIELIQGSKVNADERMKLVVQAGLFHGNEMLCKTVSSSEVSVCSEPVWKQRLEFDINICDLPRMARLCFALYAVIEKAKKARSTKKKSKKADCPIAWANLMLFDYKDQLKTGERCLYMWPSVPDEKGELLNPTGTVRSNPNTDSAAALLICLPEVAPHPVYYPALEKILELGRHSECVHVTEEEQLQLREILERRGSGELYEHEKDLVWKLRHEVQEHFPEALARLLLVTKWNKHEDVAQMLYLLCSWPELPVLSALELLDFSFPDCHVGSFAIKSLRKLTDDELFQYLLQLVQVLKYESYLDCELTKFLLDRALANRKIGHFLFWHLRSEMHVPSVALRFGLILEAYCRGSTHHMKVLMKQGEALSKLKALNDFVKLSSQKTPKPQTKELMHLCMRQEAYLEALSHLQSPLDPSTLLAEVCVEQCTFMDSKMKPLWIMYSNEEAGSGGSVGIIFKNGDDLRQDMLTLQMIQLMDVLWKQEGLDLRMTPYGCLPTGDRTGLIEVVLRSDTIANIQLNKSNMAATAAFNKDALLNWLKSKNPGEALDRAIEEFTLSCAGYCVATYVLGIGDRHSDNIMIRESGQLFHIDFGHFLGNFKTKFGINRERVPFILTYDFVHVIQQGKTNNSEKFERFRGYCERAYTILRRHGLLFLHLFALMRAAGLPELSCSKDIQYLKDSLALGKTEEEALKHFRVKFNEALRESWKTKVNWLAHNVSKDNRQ

[2] = Stability in human liver microsomes at 1 uM in presence of NADPH by LC-MS/MS analysis; type: ADME, microsome; settings: read-out: Stability
[3] = Apparent permeability from apical to basolateral side in MDCKI cells at 10 uM after 2 hrs; type: ADME, cell-based, Canis lupus familiaris; settings: dog, MDCK
[4] = molecular target: T1, Phosphatidylinositol 4,5-bisphosphate 3-kinase catalytic subunit delta isoform; test: Inhibition of PI3Kdelta in human whole blood assessed as suppression of CD69 expression

Row | Compound | Ki [1] [nM] | CLhep predicted at 1 µM [2] [mL/min/kg] | Papp A→B at 2 h, 10 µM [3] [×10⁻⁶ cm/s] | IC50 [4] [nM]
1 | CC(C)n1ncnc1-c1cn2c(n1)-c1cc(C(=O)N3CCN(C(C)(C)C)CC3)ccc1OCC2 | 1.7 | 14 | – | –
2 | CC(C)n1ncnc1-c1cn2c(n1)-c1cc([S@+]([O-])C3CCN(C(C)(C)C)CC3)ccc1OCC2 | 12 | 12 | – | –
3 | CC(C)n1ncnc1-c1cn2c(n1)-c1cc(S(=O)(=O)N3CCN(C(C)(C)C)CC3)ccc1OCC2 | 1.2 | 20 | – | –
4 | Cc1nc(-c2cn3c(n2)-c2cc([C@@H](C)N4CCN(C(C)(C)C)CC4)c(F)cc2OCC3)n(C(C)C)n1 | 0.78 | 15 | 13.6 | 15
5 | CC(C)n1ncnc1-c1cn2c(n1)-c1cc(CN3CCC(C(C)(C)O)CC3)ccc1OCC2 | 20 | 6.8 | – | –
6 | Cc1nc(-c2cn3c(n2)-c2cc([C@H](C)N4CCN(C(C)(C)C)CC4)c(F)cc2OCC3)n(C(C)C)n1 | 2.4 | – | – | –
7 | CC(C)n1ncnc1-c1cn2c(n1)-c1cc(CN3CCN(C(C)(C)C)CC3)ccc1OCC2 | 2.5 | 9.7 | – | –
8 | Cc1nc(-c2cn3c(n2)-c2cc([C@@H](C)N4CCN(C(C)(C)C)CC4)c(C)cc2OCC3)n(C(C)C)n1 | – | 8.4 | 14.2 | –
9 | CC(C)n1ncnc1-c1cn2c(n1)-c1cc([S@@+]([O-])C3CCN(C(C)(C)C)CC3)ccc1OCC2 | 0.81 | 17 | – | –
10 | Cc1nc(-c2cn3c(n2)-c2cc([C@@H](C)N4CCN(C(C)(C)C)CC4)ncc2OCC3)n(C(C)C)n1 | 2.8 | – | – | –
11 | Cc1nc(-c2cn3c(n2)-c2cc([C@H](C)N4CCN(C(C)(C)C)CC4)ncc2OCC3)n(C(C)C)n1 | 1.9 | < 3.9 | 10 | 28
